From article PMC10761396, “Evaluation of new alternative methods for the identification of estrogenic, androgenic and steroidogenic effects: a comparative in vitro/in silico study” (Archives of Toxicology, 2023)
Entries after “also recorded” stand apart in the source; their conditions may differ. Where two headings read alike, the source gives them in different places.

What was measured:
aromatase [1] = system: aromatase; parameters: method as in Lu et al. [2012]; conditions: recombinant and placental microsomal preparations; ref Lu et al. [2012]; cited from earlier work
H295R cells = test: H295R steroidogenesis assay (oestrogen and androgen production); format: cell-based, human; conditions: Homo sapiens, NCI-H295R, 48 h
Method: The in vitro H295R Steroidogenesis Assay is based on the human adenocarcinoma cell line, NCI-H295R, in which the human steroidogenesis pathway is fully functional (OECD 2022). The effect of the test chemical on the production of 17β-estradiol and testosterone is measured using ERα CALUX and AR CALUX technology.
The test chemical was tested in two independent assays, each in triplicate.

ER [2] = test: ToxCast ER assays and final ToxCast call; conditions: for Final "true" call (ToxCast) ER: from active ToxCast assays, cytotoxicity, ToxCast Pathway Model and CERAPP Potency Level; for ToxCast result (ER): overall call from ToxCast data (Supplementary Table 2)
From the text: (§1) A rich source of data can be found in the EPA's ToxCast database (US EPA). This contains ED data for ~ 1800 chemicals in more than 700 high-throughput assay endpoints that cover a range of high-level cell responses. The US EPA is running an Endocrine Disruption Screening Program (EDSP), with the aim of prioritising chemicals using high-throughput screening methods and computational toxicology approaches to evaluate thousands of chemicals for ED activities. The OECD framework for ED assessment (OECD [2018]) requires animal testing at higher levels, where relevant in vitro alternatives are missing e.g. for developmental, reproductive, neurological and immune effects. However, such follow-up testing is not possible for the cosmetics industry especially in the EU due to the complete animal testing ban which came into force in March 2013 (EU [2009]). Even for other industries, animal models are not suitable for assessing ED effects due to issues relating to ethics, capacity, speed and relevance (Patisaul et al. [2018]). Therefore, chemicals which cannot be evaluated using in vivo method must be assessed using alternative methods e.g. in silico and in vitro methods listed in Levels 1 and 2 of the framework described in the OECD 150 test guideline (OECD [2018]).
(§2) The performance of different in silico models for ED effects tends to be evaluated on single model for a single effect, such as ER or AR binding, agonism or antagonism (normally by the developer), or a limited number of models using multiple chemicals (Weyrich et al. [2022]). Multi-organisation collaborations have also evaluated multiple models for a specific effect e.g. ER (Mansouri et al. [2016]) and AR (Mansouri et al. [2020]) effects. Therefore, we have conducted a side-by-side comparison of multiple different in silico models covering three pathways in ED, namely ER, AR and aromatase inhibition and compared these with ToxCast-derived final calls, as well as with results from in vitro assays. The efficiency of the in silico models was evaluated as a metric for the ability of the in silico model to generate concrete predictions. […] In vivo data were available for some but not all chemicals; therefore, an evaluation of the performance of the methods was made by comparing the derived overall calls from in silico models with those from the ToxCast database. The final call for each chemical evaluated in the ToxCast assays was made by considering the active-flagged assays and the corresponding cytotoxicity levels, the ToxCast Pathway Model (Browne et al. [2015]) and the CERAPP Potency Level (Mansouri et al. [2016]) for ER effects and the ToxCast Pathway Model (Kleinstreuer et al. [2017]) for AR effects (see Online Resource 1 Supplementary Tables 2, 4 and 6 for the outcome of the ER, AR and aromatase ToxCast assays, additional literature and final calls for each chemical and target).

AR [3] = test: ToxCast AR assays and final ToxCast call; conditions: for Final "true" call (ToxCast): AR effects, from active assays, cytotoxicity and pathway model; for ToxCast result: AR overall call from Supplementary Table 4; for Final "true" call (ToxCast) AR: from ToxCast assays and ToxCast Pathway Model
From the text: as §1, §2

aromatase [4] = test: ToxCast aromatase assays (TOX21_Aromatase_Inhibition) and final ToxCast call; format: cell-based; conditions: for ToxCast result: aromatase overall ToxCast call; for Final "true" call (ToxCast) Aromatase inhibition: from ToxCast assays
From the text: as §2
Aromatase represents only one enzyme involved in steroidogenesis (the conversion of androgens to oestrogens); therefore, the aromatase assay detects effects on 17β-oestradiol production only. […] It is a cell-based assay in which MCF-7 cells are incubated with the test chemical for 24 h before measuring aromatase activities indirectly via a luciferase-based reporter endpoint which is dependent on the binding of the oestradiol–ER complex to the oestrogen response element. A decrease in luciferase activity can occur as a result of direct inhibition of aromatase (preventing the production of oestradiol) or by preventing oestradiol from binding to the ER and thus the binding to the oestrogen RE which initiates the production of luciferase (Lui et al. [2008]).

ER [5] = system: ER; parameters: method as in US EPA ToxCast; conditions: ref US EPA ToxCast, cited from earlier work; for ToxCast 1: (Comments), efficacy: borderline: less than 50% efficacy; for ToxCast 1: (Active assays), ER assay listed as active: each listed assay name = active-flagged assay
ER [6] = system: ER; parameters: method as in Browne, et al (2015); conditions: ref Browne, et al (2015), cited from earlier work; for ToxCast Pathway Model (AUC): as agonist where given, value above 0.1 = significant interaction
ER [7] = system: ER; parameters: method as in Mansouri et al. 2016; conditions: ref Mansouri et al. 2016; cited from earlier work
AR [8] = system: AR; parameters: method as in ToxCast; conditions: ref ToxCast, cited from earlier work; for ToxCast 1: (Active assays), number of positive assays / assays run: ToxCast AR assays; for ToxCast conclusion from assays result: AR sheet
AR [9] = conditions: AR pathway model; ref Kleinstreuer et al (2017) 10.1021/acs.chemrestox.6b00347; cited from earlier work
aromatase [10] = system: aromatase; parameters: method as in US EPA ToxCast; conditions: ref US EPA ToxCast, cited from earlier work
human (non-selective) ER = test: ER radioligand ([3H]estradiol) receptor-binding assay
Method: The chemicals were tested for their ability to bind to different targets. […] Chemicals were incubated at 10 µM with cells overexpressing ER or AR for 24 h at 4°C, after which, the binding of the radiolabeled ligand ([^3H]estradiol for ER and [^3H]methyltrienolone for AR) was measured by liquid scintillation counting. An increase or decrease higher than 50% were considered to represent significant effects. Four chemicals were tested in additional incubations at several concentrations up to the maximum soluble concentration for IC50 or EC50 determination for the associated target. Receptor binding was calculated as a % inhibition of the binding of a radioactively labeled ligand specific for each target.
Each test chemical was tested in a single assay in duplicate.

ERα [11] = biological target: T1, ERα (Homo sapiens, UniProt P03372); test: YES (Yeast oestrogen screen) assay, agonist and antagonist mode; conditions: YES antagonist assay
T1 sequence (P03372 1-595): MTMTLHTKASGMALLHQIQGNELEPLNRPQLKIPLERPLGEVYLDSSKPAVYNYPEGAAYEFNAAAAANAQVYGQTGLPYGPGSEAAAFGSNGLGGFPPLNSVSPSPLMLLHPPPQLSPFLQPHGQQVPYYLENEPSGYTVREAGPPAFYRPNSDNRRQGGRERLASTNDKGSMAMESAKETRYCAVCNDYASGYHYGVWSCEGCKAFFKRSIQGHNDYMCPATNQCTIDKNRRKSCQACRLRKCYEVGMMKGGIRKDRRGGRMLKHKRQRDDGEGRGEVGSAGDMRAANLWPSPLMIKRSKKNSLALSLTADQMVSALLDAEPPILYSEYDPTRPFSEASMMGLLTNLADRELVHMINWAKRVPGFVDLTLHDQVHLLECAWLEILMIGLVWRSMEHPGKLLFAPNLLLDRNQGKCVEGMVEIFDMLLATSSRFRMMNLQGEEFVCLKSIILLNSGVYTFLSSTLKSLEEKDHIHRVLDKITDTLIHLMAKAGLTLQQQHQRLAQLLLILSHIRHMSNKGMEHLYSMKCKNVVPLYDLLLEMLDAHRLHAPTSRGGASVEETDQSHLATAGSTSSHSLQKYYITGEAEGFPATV
Method: The YES/YAS XL (Xtra Lyticase) assay kit from Xenometrix AG (Allschwil, Switzerland) was conducted according to the Supplier’s instructions.
In the YES assay, human ERα is integrated in the yeast (Saccharomyces cerevisiae) chromosome, and for the YAS assay human AR is integrated (Routledge and Sumpter 1996; Sohoni and Sumpter 1998). […] This enzyme then converts a yellow substrate to a purple metabolite, which can be measured colorimetrically.
Growing yeast cells stably transformed with either hERα (YES) or hAR (YAS) and a β-galactosidase reporter system were exposed to a range of concentrations of each test compound. […] The positive control chemicals for agonistic effects were 17-β estradiol for YES and 5α-dihydrotestosterone for YAS. […] A combination of a fixed concentration of positive control and a range of concentrations of each test chemical were tested. The cells were incubated with each treatment for 18 h at 31°C. The cells were lysed in the presence of the yellow β-galactosidase-substrate, chlorophenol red-β-D-galactopyranoside (CPRG). Yeast cell growth was assessed prior to addition of the lysis buffer by measuring the absorbance at 690 nm. The production of the red metabolite of CPRG was determined by measuring the absorbance at 570 nm. It was corrected for diffraction by cells and debris by a simultaneous measurement at 690 nm. The results were evaluated for estrogenic and androgenic agonistic and antagonistic activity, as well as for yeast growth inhibition or cytotoxicity.
An IR value ≥ IR10 in the YES or YAS agonist assay indicates an agonistic effect (IR10 is defined as the IR which is 10% of (IR max - IR solvent) above the IR solvent. An IR value ≤ IR50 in the YES or YAS antagonist assay indicates a possible antagonistic effect (IR50 is defined as 50% of (IR control - IR solvent), where the IR control is at the corresponding fixed concentration of agonist used: 3.3 × 10^-10 M 17-β estradiol and 3.3 × 10^-9 M 5α-dihydrotestosterone, respectively). […]

ERα [12] = biological target: T1, ERα; test: (anti-)ERα CALUX receptor transactivation assay; format: cell-based; parameters: expressed in transfected cells; host or cells: CALUX cells (U2-OS is named only for the cytotoxicity CALUX)
Method: The human CALUX® assays were used to measure the impact of test compounds on estrogen and androgen pathways. […] Chemicals can activate (or inactivate, in the case of an antagonistic activity) a ligand-specific pathway by binding to the receptor (ER, AR), after which the receptor-ligand complex binds to specific DNA REs […], resulting in increased (or decreased) cellular expression of a marker protein (e.g., luciferase).
Chemicals were dissolved and diluted in DMSO. […] The cytotoxicity of each test chemical was assessed using the U2-OS based cytotoxicity CALUX bioassay. Concentrations causing >20% reduction of luminescence were considered cytotoxic. […] Luciferase production was quantified by measuring luminescence following addition of luciferin. For antagonist assays, a fixed concentration of receptor agonist was co-incubated with a range of concentrations of the test chemical. […] For the AR assays, dihydrotestosterone was the positive control for agonistic effects and flutamide was the positive control for antagonist effects.
Each test chemical was tested in triplicates in two independent experiments.

[13] = read-out: Steroidogenesis Androgenicity LEC
[14] = read-out: Steroidogenesis Estrogenicity LEC

Structure (SMILES) | aromatase inhibitory action (aromatase [1]) | minimal effective concentration (H295R cells; [13]) [µM] | minimal effective concentration (H295R cells; [14]) [µM] | Final "true" call (ToxCast) ER (ER [2]) | ToxCast result (ER) (ER [2]) | Final "true" call (ToxCast) (AR [3]) | ToxCast result (AR [3]) | Final "true" call (ToxCast) AR (AR [3]) | ToxCast result (aromatase [4]) | Final "true" call (ToxCast) Aromatase inhibition (aromatase [4]) | ToxCast 1: (Comments), efficacy (ER [5]) | ToxCast 1: (Active assays), ER assay listed as active (ER [5]) | ToxCast 1: (Active assays), positive/total ER assays (ER [5]) | ToxCast Pathway Model (AUC) (ER [6]) | ToxCast Pathway Model interaction (ER [6]) | CERAPP Potency Level (ER [7]) | ToxCast 1: (Active assays), number of positive assays / assays run (AR [8]) | ToxCast Pathway Model (AUC) (AR [9]) | ToxCast (Aromatase assays), positive/total (aromatase [10]) | ToxCast conclusion from assays result (ER [5]) | also measured
CC/C(=C(\c1ccccc1)c1ccc(OCCNC)cc1)c1ccccc1 [N-desmethyl-tamoxifen] | potent inhibitors |  |  |  |  |  |  |  |  |  |  |  |  |  |  |  |  |  |  |  | 
CC/C(=C(\c1ccc(O)cc1)c1ccc(OCCNC)cc1)c1ccccc1 [endoxifen] | potent inhibitors |  |  |  |  |  |  |  |  |  |  |  |  |  |  |  |  |  |  |  | 
O=C(O)c1ccc(C(=O)O)cc1 [Terephthalic acid, terephthalic acid] |  | > 100 | > 100 | Negative | Negative | Negative | Negative | Negative | Negative | Negative | Boarderline: less than 50% efficacy (31.34%) | OT_ER_ERaERb_1440 | 1/18 Positive | 0 | NO significant interaction | Negative | 0/14 positive | AUC = 0, then there is no significant interaction. | 0/2 positive |  | 
CCN(CC)c1ccc(C(=O)c2ccccc2C(=O)O)c(O)c1 [DEABA, 2-(4-(diethylamino)-2-hydroxybenzoyl)benzoic acid] |  | > 100 | > 100 | Negative | Negative | Negative | Negative | Negative | Negative | Negative | Boarderline: less than 50% efficacy (28.5%) | TOX21_ERa_LUC_VM7_Agonist | 1/8 positive |  |  | Negative | 1/9 positive |  | 0/2 positive | Endocrine Disruption Potential.Significant Estrogen Receptor activity seen | ER binding outcome (human (non-selective) ER): negative; inhibition of control specific binding to the ER (human (non-selective) ER; single-dose screening, 10 µM): less than -25%; ToxCast conclusion from assays result (AR [8]): Endocrine Disruption Potential.Significant Estrogen Receptor activity seen; efficacy (assays Comments) (AR [8]; TOX21_AR_BLA_Antagonist_ratio): Boarderline: less than 50% efficacy (38.5%); ER antagonism in the YES assay (ERα [11]): inconclusive; Lowest Effective Concentration (LEC), ER agonism (ERα [12]): 56 µM
CC/C(=C(\c1ccccc1)c1ccc(OCCN(C)C)cc1)c1ccccc1 [Tamoxifen, reference compound] | no appreciable inhibition | > 3.16 | > 1 | Positive for agonism and antagonism | ER agonist and antagonist | Inconclusive |  |  | Positive | Positive |  |  | 19/21 positive | 0.45 | significant interaction | Moderate antagonist | 9/17 Positive | AUC = 0.042, then there is no significant interaction. |  | Endocrine Disruption Potential.Significant Estrogen Receptor activity seen | ToxCast conclusion from assays result (AR [8]): Endocrine Disruption Potential.Significant Estrogen Receptor activity seen; ToxCast 1: (assays Comments) (AR [8]; comment on all active AR assays): There is binding, but only one concentration above the baseline, (noisy data); ToxCast (Aromatase assays), assay listed as active (aromatase [10]; each listed assay name = active assay): TOX21_Aromatase_Inhibition; also recorded: TOX21_Aromatase_Inhibition_viability
